The values below come from ChEMBL document CHEMBL4732163 (Eur J Med Chem, 2021).

The nature of series [1]: Cytotoxicity against DENV-2 New Guinea C infected human Huh-7 cells assessed as reduction in cell viability preincubated for 1 hr followed by viral infection and measured after 48 hrs by Alamar blue assay. Conditions: Huh-7 cells infected with DENV-2 New Guinea C, time 49 hrs. It is filed as cell-based. On the technique in general: Resazurin is reduced to fluorescent resorufin, in cell work by metabolically active cells.

The test system of series [2] is dengue virus type 2. Briefly: Antiviral activity against DENV-2 New Guinea C infected in human Huh-7 cells preincubated for 1 hr followed by viral infection and measured after 48 hrs by Renilla luciferase reporter gene assay. (In general: Reporter assays use an easily measured gene product as a stand-in for the process of interest.)
Series [3] addresses T1, Cyclin-G-associated kinase (Homo sapiens, UniProt O14976).
T1 sequence (O14976 whole entry): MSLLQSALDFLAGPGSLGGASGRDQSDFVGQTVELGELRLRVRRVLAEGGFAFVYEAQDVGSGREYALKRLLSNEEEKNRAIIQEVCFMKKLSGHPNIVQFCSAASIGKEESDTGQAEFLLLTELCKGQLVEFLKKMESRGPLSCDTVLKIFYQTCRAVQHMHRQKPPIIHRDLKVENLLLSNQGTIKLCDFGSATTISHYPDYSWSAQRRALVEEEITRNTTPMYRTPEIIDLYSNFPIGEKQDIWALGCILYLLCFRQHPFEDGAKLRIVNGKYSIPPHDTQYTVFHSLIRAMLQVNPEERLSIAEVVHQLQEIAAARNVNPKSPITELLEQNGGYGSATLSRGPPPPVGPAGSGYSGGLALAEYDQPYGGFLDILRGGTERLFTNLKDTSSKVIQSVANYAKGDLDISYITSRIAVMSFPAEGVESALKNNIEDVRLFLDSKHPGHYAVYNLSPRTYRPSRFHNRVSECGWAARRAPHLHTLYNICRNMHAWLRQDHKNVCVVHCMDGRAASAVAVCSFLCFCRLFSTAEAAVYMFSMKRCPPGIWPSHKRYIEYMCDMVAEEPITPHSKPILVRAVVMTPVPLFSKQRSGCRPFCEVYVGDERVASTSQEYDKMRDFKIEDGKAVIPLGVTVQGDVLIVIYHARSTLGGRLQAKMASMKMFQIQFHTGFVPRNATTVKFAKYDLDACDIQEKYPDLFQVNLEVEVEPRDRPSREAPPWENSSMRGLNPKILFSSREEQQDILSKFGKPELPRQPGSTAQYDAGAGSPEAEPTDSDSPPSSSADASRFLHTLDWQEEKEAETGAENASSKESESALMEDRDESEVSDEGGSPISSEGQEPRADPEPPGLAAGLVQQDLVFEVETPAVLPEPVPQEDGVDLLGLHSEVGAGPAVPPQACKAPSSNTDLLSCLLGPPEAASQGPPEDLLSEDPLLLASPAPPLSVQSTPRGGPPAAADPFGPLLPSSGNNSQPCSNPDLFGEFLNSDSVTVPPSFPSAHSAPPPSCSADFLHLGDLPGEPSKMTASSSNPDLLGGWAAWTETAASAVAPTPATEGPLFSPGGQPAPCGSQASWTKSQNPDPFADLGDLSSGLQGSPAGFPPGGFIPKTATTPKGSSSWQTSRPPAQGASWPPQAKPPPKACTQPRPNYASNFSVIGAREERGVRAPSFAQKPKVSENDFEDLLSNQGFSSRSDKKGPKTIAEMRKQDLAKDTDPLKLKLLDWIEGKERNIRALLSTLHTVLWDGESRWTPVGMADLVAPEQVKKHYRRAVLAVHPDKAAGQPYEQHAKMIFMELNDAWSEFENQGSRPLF
As to the kind of experiment: Inhibition of tracer 222 binding to GAK (unknown origin) incubated for 1 hr by Lanthascreen TR-FRET assay.

The target of series [4] is Receptor-type tyrosine-protein kinase FLT3 (Homo sapiens) (UniProt P36888). As to the kind of experiment: Inhibition of wild-type human partial length FLT3 (V592 to Y969 residues) expressed in bacterial expression system assessed as residual activity at 10 uM by Kinomescan method relative to control.
Receptor-type tyrosine-protein kinase FLT3 (Homo sapiens), sequence (P36888 whole entry, the tested form may be a part): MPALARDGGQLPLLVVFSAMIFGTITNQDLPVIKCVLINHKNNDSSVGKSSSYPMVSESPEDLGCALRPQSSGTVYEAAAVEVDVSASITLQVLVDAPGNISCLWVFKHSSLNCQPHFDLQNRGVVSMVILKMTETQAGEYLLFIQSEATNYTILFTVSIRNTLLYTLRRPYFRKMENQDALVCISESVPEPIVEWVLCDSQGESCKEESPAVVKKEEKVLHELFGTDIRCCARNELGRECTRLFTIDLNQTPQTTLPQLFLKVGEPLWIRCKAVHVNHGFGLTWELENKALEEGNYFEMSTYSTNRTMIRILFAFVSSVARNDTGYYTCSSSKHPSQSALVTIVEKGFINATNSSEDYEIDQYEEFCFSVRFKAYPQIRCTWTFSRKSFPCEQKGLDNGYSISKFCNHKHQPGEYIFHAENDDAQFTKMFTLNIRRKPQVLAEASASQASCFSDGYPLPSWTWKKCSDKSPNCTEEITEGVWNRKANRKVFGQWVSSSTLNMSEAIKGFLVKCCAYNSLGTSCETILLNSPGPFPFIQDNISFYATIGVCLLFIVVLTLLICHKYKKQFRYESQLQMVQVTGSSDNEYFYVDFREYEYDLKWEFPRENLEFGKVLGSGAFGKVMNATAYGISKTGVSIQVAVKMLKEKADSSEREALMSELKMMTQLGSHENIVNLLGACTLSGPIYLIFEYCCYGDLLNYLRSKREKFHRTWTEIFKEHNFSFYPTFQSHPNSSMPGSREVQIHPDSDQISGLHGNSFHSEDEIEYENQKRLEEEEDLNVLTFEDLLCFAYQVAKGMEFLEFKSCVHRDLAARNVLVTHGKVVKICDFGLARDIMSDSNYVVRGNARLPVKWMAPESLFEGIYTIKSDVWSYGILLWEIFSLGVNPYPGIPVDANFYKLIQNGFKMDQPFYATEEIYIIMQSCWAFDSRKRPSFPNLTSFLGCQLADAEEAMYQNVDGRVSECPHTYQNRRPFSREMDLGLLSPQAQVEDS
Series [5] addresses MAP kinase-interacting serine/threonine-protein kinase 2 (Homo sapiens) (UniProt Q9HBH9). Briefly: Inhibition of wild-type human partial length MKNK2 (G63 to S388 residues) expressed in mammalian expression system assessed as residual activity at 10 uM by Kinomescan method relative to control.
Series [6] deals with Cyclin-dependent kinase 7 (Homo sapiens) (UniProt P50613). Briefly: Inhibition of wild-type human full length CDK7 (M1 to L344 residues) expressed in mammalian expression system assessed as residual activity at 10 uM by Kinomescan method relative to control.
Cyclin-dependent kinase 7 (Homo sapiens), sequence (P50613 whole entry, the tested form may be a part): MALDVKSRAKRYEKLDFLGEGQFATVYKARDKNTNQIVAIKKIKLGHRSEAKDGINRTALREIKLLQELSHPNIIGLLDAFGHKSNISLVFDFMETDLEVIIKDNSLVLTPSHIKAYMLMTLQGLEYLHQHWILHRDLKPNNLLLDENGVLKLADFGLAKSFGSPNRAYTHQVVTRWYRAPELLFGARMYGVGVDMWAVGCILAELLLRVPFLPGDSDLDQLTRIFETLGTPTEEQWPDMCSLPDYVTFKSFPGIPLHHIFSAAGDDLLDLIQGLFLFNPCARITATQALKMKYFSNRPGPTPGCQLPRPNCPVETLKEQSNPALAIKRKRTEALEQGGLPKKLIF
Series [7] has as its target Mast/stem cell growth factor receptor Kit (Homo sapiens) (UniProt P10721). Briefly: Inhibition of wild-type human partial length KIT (I571 to D952 residues) expressed in bacterial expression system assessed as residual activity at 10 uM by Kinomescan method relative to control.
Series [8] addresses High affinity nerve growth factor receptor (Homo sapiens) (UniProt P04629). Briefly: Inhibition of wild-type human partial length TRKA (G475 to G790 residues) expressed in mammalian expression system assessed as residual activity at 10 uM by Kinomescan method relative to control.
In series [9] the target is Platelet-derived growth factor receptor alpha (Homo sapiens) (UniProt P16234). Briefly: Inhibition of wild-type human partial length PDGFRA (V575 to D1002 residues) expressed in mammalian expression system assessed as residual activity at 10 uM by Kinomescan method relative to control.
Platelet-derived growth factor receptor alpha (Homo sapiens), sequence (P16234 whole entry, the tested form may be a part): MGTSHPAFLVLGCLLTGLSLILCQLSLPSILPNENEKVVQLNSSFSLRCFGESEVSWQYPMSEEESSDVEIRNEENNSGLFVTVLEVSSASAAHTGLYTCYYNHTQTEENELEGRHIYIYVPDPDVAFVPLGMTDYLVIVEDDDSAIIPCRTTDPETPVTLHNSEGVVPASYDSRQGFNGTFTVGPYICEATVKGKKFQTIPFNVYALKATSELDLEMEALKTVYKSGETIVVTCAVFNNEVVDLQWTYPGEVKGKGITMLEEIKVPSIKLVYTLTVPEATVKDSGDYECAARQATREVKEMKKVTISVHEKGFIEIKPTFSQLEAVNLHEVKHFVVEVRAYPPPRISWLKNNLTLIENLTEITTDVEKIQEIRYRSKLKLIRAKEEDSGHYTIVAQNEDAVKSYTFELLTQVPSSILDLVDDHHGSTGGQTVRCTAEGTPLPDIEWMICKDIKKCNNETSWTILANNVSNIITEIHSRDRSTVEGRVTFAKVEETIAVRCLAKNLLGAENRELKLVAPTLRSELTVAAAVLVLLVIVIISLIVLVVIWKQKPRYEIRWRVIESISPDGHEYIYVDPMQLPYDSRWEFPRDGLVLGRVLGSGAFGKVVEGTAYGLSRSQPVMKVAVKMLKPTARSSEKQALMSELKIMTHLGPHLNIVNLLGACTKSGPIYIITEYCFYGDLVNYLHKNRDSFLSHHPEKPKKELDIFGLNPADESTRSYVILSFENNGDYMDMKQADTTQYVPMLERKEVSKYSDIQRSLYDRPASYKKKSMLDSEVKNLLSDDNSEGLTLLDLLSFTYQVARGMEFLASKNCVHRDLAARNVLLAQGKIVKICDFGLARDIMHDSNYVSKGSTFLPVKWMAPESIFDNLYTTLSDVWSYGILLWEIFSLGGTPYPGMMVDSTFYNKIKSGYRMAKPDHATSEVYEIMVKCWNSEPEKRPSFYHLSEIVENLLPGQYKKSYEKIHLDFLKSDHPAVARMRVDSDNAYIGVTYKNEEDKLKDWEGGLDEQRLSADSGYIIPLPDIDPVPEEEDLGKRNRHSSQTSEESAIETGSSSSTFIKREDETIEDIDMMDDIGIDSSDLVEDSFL
For series [10], the target named is Platelet-derived growth factor receptor beta (Homo sapiens) (UniProt P09619). Briefly: Inhibition of wild-type human partial length PDGFRB (V582 to Y1009 residues) expressed in bacterial expression system assessed as residual activity at 10 uM by Kinomescan method relative to control.
Platelet-derived growth factor receptor beta (Homo sapiens), sequence (P09619 whole entry, the tested form may be a part): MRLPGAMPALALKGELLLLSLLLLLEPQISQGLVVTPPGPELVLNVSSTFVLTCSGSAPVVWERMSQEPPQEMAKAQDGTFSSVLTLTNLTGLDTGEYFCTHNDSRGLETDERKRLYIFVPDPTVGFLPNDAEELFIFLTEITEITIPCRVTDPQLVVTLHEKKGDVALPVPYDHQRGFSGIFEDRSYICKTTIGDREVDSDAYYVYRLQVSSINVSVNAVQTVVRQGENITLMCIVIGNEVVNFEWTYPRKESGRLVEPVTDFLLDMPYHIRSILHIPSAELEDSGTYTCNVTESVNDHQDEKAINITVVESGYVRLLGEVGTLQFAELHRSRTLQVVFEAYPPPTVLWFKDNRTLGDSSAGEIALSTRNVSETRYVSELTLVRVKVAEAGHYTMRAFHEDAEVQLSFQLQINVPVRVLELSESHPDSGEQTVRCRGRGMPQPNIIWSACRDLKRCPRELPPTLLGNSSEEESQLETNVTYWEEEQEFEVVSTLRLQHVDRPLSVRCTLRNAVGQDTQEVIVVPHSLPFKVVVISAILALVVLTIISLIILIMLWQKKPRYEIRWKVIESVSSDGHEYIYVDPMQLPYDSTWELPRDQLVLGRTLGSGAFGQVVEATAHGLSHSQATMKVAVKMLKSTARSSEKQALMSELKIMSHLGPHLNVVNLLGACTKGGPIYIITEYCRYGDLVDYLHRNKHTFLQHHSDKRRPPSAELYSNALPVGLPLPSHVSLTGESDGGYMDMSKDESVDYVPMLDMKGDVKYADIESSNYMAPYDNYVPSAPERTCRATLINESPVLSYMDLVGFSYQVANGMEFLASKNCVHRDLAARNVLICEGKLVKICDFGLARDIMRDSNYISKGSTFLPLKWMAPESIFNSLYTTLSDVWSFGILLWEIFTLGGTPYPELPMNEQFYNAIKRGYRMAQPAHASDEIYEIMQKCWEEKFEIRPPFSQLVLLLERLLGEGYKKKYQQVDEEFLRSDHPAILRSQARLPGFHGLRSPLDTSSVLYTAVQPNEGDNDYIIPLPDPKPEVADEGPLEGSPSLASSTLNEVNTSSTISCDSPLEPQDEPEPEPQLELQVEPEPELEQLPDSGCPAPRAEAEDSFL

The structures appear in SMILES notation.

High affinity nerve growth factor receptor (Homo sapiens), sequence (P04629 33-796 limits assumed): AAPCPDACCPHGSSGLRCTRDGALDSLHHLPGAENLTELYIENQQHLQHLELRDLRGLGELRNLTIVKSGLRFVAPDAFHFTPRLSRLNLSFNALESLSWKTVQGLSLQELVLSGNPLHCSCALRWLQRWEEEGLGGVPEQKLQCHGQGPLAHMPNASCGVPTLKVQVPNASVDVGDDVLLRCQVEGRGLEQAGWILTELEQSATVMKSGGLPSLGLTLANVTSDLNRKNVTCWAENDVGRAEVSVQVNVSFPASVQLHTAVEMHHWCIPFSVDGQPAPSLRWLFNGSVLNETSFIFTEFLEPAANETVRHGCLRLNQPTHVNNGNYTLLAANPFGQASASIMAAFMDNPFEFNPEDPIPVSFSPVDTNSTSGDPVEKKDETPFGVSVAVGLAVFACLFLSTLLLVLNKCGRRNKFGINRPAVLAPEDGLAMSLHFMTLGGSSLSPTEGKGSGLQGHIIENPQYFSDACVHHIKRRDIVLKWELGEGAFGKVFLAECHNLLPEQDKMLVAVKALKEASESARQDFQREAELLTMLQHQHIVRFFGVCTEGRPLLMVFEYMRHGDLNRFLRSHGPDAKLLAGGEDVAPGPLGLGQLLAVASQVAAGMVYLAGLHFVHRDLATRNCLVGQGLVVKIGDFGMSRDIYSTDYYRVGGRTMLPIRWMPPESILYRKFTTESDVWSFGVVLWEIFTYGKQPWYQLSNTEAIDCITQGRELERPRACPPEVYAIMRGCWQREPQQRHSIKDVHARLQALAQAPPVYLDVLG
MAP kinase-interacting serine/threonine-protein kinase 2 (Homo sapiens), sequence (Q9HBH9 whole entry, looked up, the tested form may be a part): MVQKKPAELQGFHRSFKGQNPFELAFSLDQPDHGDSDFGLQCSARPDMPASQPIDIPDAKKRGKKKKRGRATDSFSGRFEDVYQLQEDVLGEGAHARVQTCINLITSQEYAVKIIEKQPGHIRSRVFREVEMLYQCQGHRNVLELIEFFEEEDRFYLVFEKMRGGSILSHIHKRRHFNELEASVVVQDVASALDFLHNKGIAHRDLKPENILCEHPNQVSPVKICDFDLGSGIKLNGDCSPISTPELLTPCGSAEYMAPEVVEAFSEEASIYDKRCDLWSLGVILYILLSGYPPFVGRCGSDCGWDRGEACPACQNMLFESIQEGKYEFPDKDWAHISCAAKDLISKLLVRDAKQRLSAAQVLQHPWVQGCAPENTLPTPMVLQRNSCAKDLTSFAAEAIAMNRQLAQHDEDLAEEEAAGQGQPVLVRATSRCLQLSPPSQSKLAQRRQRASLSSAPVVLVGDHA

On to `COc1cc(-c2cnc3c(-c4cccc(NC(=O)N5CCOCC5)c4)snc3c2)ccc1N`, for which the 50% cytotoxic concentration (CC50) (as a rule, the concentration at which the toxic effect on the cells reaches its halfway point) at 48 h in [1] is above 20 µM. Also, the response in series [2] was half-maximal at 7.9 µM (EC50).

On to `COc1cc(-c2cnc3c(-c4cccc(NC(=O)C5CCCC5)c4)snc3c2)ccc1N`, for which the CC50 at 48 h in series [1] stood at 13 µM. In [2], the EC50 – broadly, the midpoint of the concentration-response curve – is 1.8 µM.

In the case of `COc1cc(-c2cnc3c(N4CCC[C@@H](CNC(=O)C5CC5)C4)snc3c2)ccc1N`, the IC50 – broadly, the concentration at which inhibition is half-maximal – in series [3] is 0.36 µM.

Regarding `COc1cc(-c2cnc3c(-c4cccc(NC(=O)C(C)C)c4)snc3c2)ccc1N`, in series [1], the CC50 at 48 h was 14 µM. This molecule also yielded an EC50 in [2] of 3.8 µM.

On to `COc1cc(-c2cnc3c(N4C[C@@H](C)O[C@@H](C)C4)snc3c2)ccc1N`, for which, in [1], the CC50 at 48 h was above 20 µM. The molecule also showed an EC50 in series [2] of 0.96 µM.

`COc1cc(-c2cnc3c(-c4cccc(NC(=O)C5CC5)c4)snc3c2)ccc1N`: the CC50 at 48 h in [1] is 15 µM. In series [2], this molecule gave an EC50 of 3.6 µM.

As to `COc1cc(-c2cnc3c(N4CCCC(CNC(=O)C5CCCC5)C4)snc3c2)ccc1N` (stereo not drawn), in series [1], the CC50 at 48 h was above 20 µM. In series [2], this molecule returned an EC50 of 2.6 µM.

Regarding `COc1cc(-c2cnc3c(N4CCCC(CNC(=O)C5CC5)C4)snc3c2)ccc1N` (stereo not drawn), the IC50 in series [3] came out at 0.014 µM. Also, the half-maximal cytotoxic concentration (CC50) at 48 h in series [1] is above 20 µM. The molecule also gave an EC50 in series [2] of 4 µM.

On to `C#Cc1cccc(Nc2ncnc3cc(OCCOC)c(OCCOC)cc23)c1` [ERLOTINIB], for which, in [1], the CC50 at 48 h was above 20 µM. The same molecule had an EC50 in [2] of 12 µM.

On to `COc1cc(-c2cnc3c(N4CCCC(CNC(=O)c5ccccc5)C4)snc3c2)ccc1N` (stereo not drawn), for which the CC50 at 48 h in series [1] is above 20 µM. For the same molecule, a half-maximal effect in series [2] (EC50) was put at 3.9 µM.

Turning to `COc1cc(-c2cnc3c(N4CCOCC4)snc3c2)ccc1N`, the IC50 in [3] was determined as 0.051 µM.

In the case of `CCC(=O)Nc1cccc(-c2snc3cc(-c4ccc(N)c(OC)c4)cnc23)c1`, the CC50 at 48 h in series [1] was 9.9 µM. A half-maximal effect in series [2] (EC50) was put at 1.9 µM.

Take `COc1cc(-c2cnc3c(N4CCCC(CNC(=O)N5CCCC5)C4)snc3c2)ccc1N` (stereo not drawn): in series [1], the CC50 at 48 h is above 20 µM. Besides, in [2], the EC50 was 4.1 µM.

`CCC(=O)Nc1ccc(-c2snc3cc(-c4ccc(N)c(OC)c4)cnc23)cc1`: the IC50 in series [3] was above 1.1 µM.

Consider `COc1cc(-c2cnc3c(N4CCC[C@H](CNC(=O)C5CC5)C4)snc3c2)ccc1N`, for which the Activity in series [4], in [5], in series [6], in series [7], in [8] and in [9] was below 10% throughout. In addition, in series [10], the Activity was below 10%. Besides, in [3], the IC50 was 0.013 µM. Also, the CC50 at 48 h in [1] was above 20 µM. In series [2], a half-maximal effect (EC50) was put at 7.5 µM.

As to `COc1cc(-c2cnc3c(-c4cccc(NC(=O)N5CCCC5)c4)snc3c2)ccc1N`, the CC50 at 48 h in series [1] was above 20 µM. It took 6 µM to reach a half-maximal effect in series [2] (EC50).
